Assay results reported in patent US11590116B2 (THERAVANCE BIOPHARMA R&D IP, LLC, priority 2019, dated 2023).

Tests used:
[1] = molecular target: T1, recombinant human ALK5 (TGF-βR1) protein (Homo sapiens, UniProt P36897); test: Biochemical ALK5 (TGF-βR1) assay to measure pKi (LANCE Ultra ULight kinase assay); conditions: apparent pKi from pIC50 by Cheng-Prusoff, read-out: ALK5 pKi (converted)
T1 construct: purchased Life Technologies PR9075A
T1 sequence (P36897 34-503): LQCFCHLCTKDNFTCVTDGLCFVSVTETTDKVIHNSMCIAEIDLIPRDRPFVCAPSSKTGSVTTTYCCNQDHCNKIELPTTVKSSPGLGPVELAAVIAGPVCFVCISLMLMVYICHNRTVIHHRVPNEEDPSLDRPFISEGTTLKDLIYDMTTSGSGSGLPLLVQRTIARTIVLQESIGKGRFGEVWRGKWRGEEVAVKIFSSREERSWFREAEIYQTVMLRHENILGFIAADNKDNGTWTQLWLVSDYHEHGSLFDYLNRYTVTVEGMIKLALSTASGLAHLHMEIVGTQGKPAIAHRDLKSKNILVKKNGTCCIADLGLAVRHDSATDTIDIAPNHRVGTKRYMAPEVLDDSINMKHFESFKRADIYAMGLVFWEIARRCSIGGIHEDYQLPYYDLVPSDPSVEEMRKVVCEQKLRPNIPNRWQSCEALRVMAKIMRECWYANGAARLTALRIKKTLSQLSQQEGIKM
Outline: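 Compounds (10 μM to 25 pM) preincubated 60 minutes at room temperature with enzyme, then reaction run 60 minutes at 37° C with ATP added as 125 μM (5× final). Stopped with EDTA plus Eu-anti-phospho-Topoisomerase 2-alpha (Thr1342) antibody, TR-FRET read at 665 nm; pIC50 converted to pKi via Cheng-Prusoff.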

[2] = system: TGF-β-stimulated SMAD3 phosphorylation in BEAS-2B cells; test: Cellular ALK5 potency assay, inhibition of TGF-β stimulated pSMAD3 formation in BEAS-2B cells; type: cell-based; conditions: Homo sapiens; inhibition of TGF-β stimulated pSMAD3 formation, BEAS-2B cells; read-out: BEAS2B pIC50 (converted)
Outline: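 Cells seeded overnight; rinse with supplemented HBSS; compound 1 h at 37 °C; TGF-β 10 ng/mL final, 30 min; lyse; AlphaLISA acceptor and detector beads 2 h apart, read next day. Potency expressed as pIC50.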

| Structure (SMILES) | Ki [1] | IC50 [2] |
| --- | --- | --- |
| Cc1cccc(-c2[nH]cnc2-c2ccc3nccc(C(=O)OCC4CCNCC4)c3c2)n1 [Compound 1078, 4-piperidylmethyl 6-[5-(6-methyl-2-pyridyl)-1H-imidazol-4-yl]quinoline-4-carboxylate] | 0.398 to 3.16 nM | 25.1 to 158 nM |
| Cc1cccc(-c2[nH]cnc2-c2ccc3ncc(-c4ncc(C(=O)O[C@@H]5CCNC5)cn4)cc3c2)n1 [Compound 1079, [(3R)-pyrrolidin-3-yl] 2-[6-[5-(6-methyl-2-pyridyl)-1H-imidazol-4-yl]-3-quinolyl]pyrimidine-5-carboxylate] | 0.0398 to 0.316 nM | 25.1 to 158 nM |
| Cc1cccc(-c2[nH]cnc2-c2ccc3nccc(C(=O)OC[C@H]4CC[C@H](N)CC4)c3c2)n1 [Compound 1081, (4-aminocyclohexyl)methyl 6-[5-(6-methyl-2-pyridyl)-1H-imidazol-4-yl]quinoline-4-carboxylate] | 0.398 to 3.16 nM | 200 to 1260 nM |
| Cc1cccc(-c2[nH]cnc2-c2ccc3ncc(-c4cc(C(=O)O)cs4)cc3c2)n1 [Compound 1082, 5-[6-[5-(6-methyl-2-pyridyl)-1H-imidazol-4-yl]-3-quinolyl]thiophene-3-carboxylic acid] | < 0.0316 nM | 200 to 1260 nM |
| Cc1cccc(-c2[nH]cnc2-c2ccc3ncc(-c4ncc(C5=CCNCC5)s4)cc3c2)n1 [Compound 1084, 2-[6-[5-(6-methyl-2-pyridyl)-1H-imidazol-4-yl]-3-quinolyl]-5-(1,2,3,6-tetrahydropyridin-4-yl)thiazole] | 0.0398 to 0.316 nM | < 20 nM |
| Cc1cccc(-c2[nH]ncc2-c2ccc3nccc(C(=O)OC[C@@H]4CCCCN4)c3c2)n1 [Compound 1085, [(2S)-2-piperidyl]methyl 6-[5-(6-methyl-2-pyridyl)-1H-pyrazol-4-yl]quinoline-4-carboxylate] | 0.398 to 3.16 nM | 25.1 to 158 nM |
| Cc1cccc(-c2[nH]cnc2-c2ccc3ncc(-c4ccnc(C(=O)OCC5CNC5)c4)cc3c2)n1 [Compound 1086, azetidin-3-ylmethyl 4-[6-[5-(6-methyl-2-pyridyl)-1H-imidazol-4-yl]-3-quinolyl]pyridine-2-carboxylate] | 0.0398 to 0.316 nM | 200 to 1260 nM |
| Cc1cccc(-c2[nH]cnc2-c2ccc3ncc(-c4cc(C(=O)O[C@@H]5CCNC5)ccn4)cc3c2)n1 [Compound 1087, [(3R)-pyrrolidin-3-yl] 2-[6-[5-(6-methyl-2-pyridyl)-1H-imidazol-4-yl]-3-quinolyl]pyridine-4-carboxylate] | < 0.0316 nM | 25.1 to 158 nM |
| Cc1cccc(-c2[nH]cnc2-c2ccc3ncc(-c4ccc(C(=O)OCCN5CCNCC5)s4)cc3c2)n1 [Compound 1088, 2-piperazin-1-ylethyl 5-[6-[5-(6-methyl-2-pyridyl)-1H-imidazol-4-yl]-3-quinolyl]thiophene-2-carboxylate] | 0.0398 to 0.316 nM | 25.1 to 158 nM |
| Cc1cccc(-c2[nH]cnc2-c2ccc3ncc(-c4cccc(C(=O)O[C@H]5CCNC5)n4)cc3c2)n1 [Compound 1089, [(3S)-pyrrolidin-3-yl] 6-[6-[5-(6-methyl-2-pyridyl)-1H-imidazol-4-yl]-3-quinolyl]pyridine-2-carboxylate] | 0.0398 to 0.316 nM | 25.1 to 158 nM |
| Cc1cccc(-c2[nH]cnc2-c2ccc3ncc(C(=O)OCCCC4CNC4)cc3c2)n1 [Compound 1090, 3-(azetidin-3-yl)propyl 6-[5-(6-methyl-2-pyridyl)-1H-imidazol-4-yl]quinoline-3-carboxylate] | 0.0398 to 0.316 nM | 200 to 1260 nM |
| Cc1cccc(-c2[nH]cnc2-c2ccc3ncc(-c4ccc(C(=O)O)cn4)cc3c2)n1 [Compound 1091, 6-[6-[5-(6-methyl-2-pyridyl)-1H-imidazol-4-yl]-3-quinolyl]pyridine-3-carboxylic acid] | < 0.0316 nM | 1580 to 10000 nM |
| Cc1cccc(-c2[nH]cnc2-c2ccc3ncc(-c4ccnc(C(=O)O)c4)cc3c2)n1 [Compound 1092, 4-[6-[5-(6-methyl-2-pyridyl)-1H-imidazol-4-yl]-3-quinolyl]pyridine-2-carboxylic acid] | < 0.0316 nM | 1580 to 10000 nM |
| Cc1cccc(-c2[nH]cnc2-c2ccc3ncc(-c4nccc(C(=O)O[C@@H]5CCNC5)n4)cc3c2)n1 [Compound 1093, [(3R)-pyrrolidin-3-yl] 2-[6-[5-(6-methyl-2-pyridyl)-1H-imidazol-4-yl]-3-quinolyl]pyrimidine-4-carboxylate] | 0.398 to 3.16 nM | 200 to 1260 nM |
| Cc1cccc(-c2[nH]cnc2-c2ccc3ncc(-c4ccc(C(=O)OC5CCNCC5)cn4)cc3c2)n1 [Compound 1094, 4-piperidyl 6-[6-[5-(6-methyl-2-pyridyl)-1H-imidazol-4-yl]-3-quinolyl]pyridine-3-carboxylate] | < 0.0316 nM | 25.1 to 158 nM |
| Cc1cccc(-c2[nH]ncc2-c2ccc3nccc(C(=O)OC[C@H]4CCCCN4)c3c2)n1 [Compound 1095, [(2R)-2-piperidyl]methyl 6-[5-(6-methyl-2-pyridyl)-1H-pyrazol-4-yl]quinoline-4-carboxylate] | 0.398 to 3.16 nM | 25.1 to 158 nM |
| Cc1cccc(-c2[nH]cnc2-c2ccc3ncc(-c4csc(C(=O)OCCN5CCNCC5)n4)cc3c2)n1 [Compound 1096, 2-piperazin-1-ylethyl 4-[6-[5-(6-methyl-2-pyridyl)-1H-imidazol-4-yl]-3-quinolyl]thiazole-2-carboxylate] | 0.0398 to 0.316 nM | 25.1 to 158 nM |
| Cc1cccc(-c2[nH]cnc2-c2ccc3nccc(C(=O)O)c3c2)n1 [Compound 1097, 6-[5-(6-methyl-2-pyridyl)-1H-imidazol-4-yl]quinoline-4-carboxylic acid] | 0.398 to 3.16 nM | 200 to 1260 nM |
| Cc1cccc(-c2[nH]cnc2-c2ccc3ncc(-c4nccc(C(=O)OCC5CNC5)n4)cc3c2)n1 [Compound 1098, azetidin-3-ylmethyl 2-[6-[5-(6-methyl-2-pyridyl)-1H-imidazol-4-yl]-3-quinolyl]pyrimidine-4-carboxylate] | 0.0398 to 0.316 nM | 200 to 1260 nM |
| Cc1cccc(-c2[nH]cnc2-c2ccc3ncc(-c4ccnc(C(=O)OCCN5CCNCC5)c4)cc3c2)n1 [Compound 1099, 2-piperazin-1-ylethyl 4-[6-[5-(6-methyl-2-pyridyl)-1H-imidazol-4-yl]-3-quinolyl]pyridine-2-carboxylate] | 0.0398 to 0.316 nM | 200 to 1260 nM |
| Cc1cccc(-c2[nH]cnc2-c2ccc3ncc(-c4cccc(N5CCNCC5)n4)cc3c2)n1 [Compound 1100, 6-[5-(6-methyl-2-pyridyl)-1H-imidazol-4-yl]-3-(6-piperazin-1-yl-2-pyridyl)quinoline] | 0.0398 to 0.316 nM | < 20 nM |
| Cc1cccc(-c2[nH]cnc2-c2ccc3ncc(-c4ncc(C(=O)OC5CCNCC5)cn4)cc3c2)n1 [Compound 1101, 4-piperidyl 2-[6-[5-(6-methyl-2-pyridyl)-1H-imidazol-4-yl]-3-quinolyl]pyrimidine-5-carboxylate] | 0.0398 to 0.316 nM | 25.1 to 158 nM |
| Cc1cccc(-c2[nH]cnc2-c2ccc3ncc(-c4nccc(C(=O)OC5CCNCC5)n4)cc3c2)n1 [Compound 1102, 4-piperidyl 2-[6-[5-(6-methyl-2-pyridyl)-1H-imidazol-4-yl]-3-quinolyl]pyrimidine-4-carboxylate] | 0.0398 to 0.316 nM | 200 to 1260 nM |
| Cc1cccc(-c2[nH]cnc2-c2ccc3ncc(-c4ccc(C(=O)OCC5CNC5)cn4)cc3c2)n1 [Compound 1103, azetidin-3-ylmethyl 6-[6-[5-(6-methyl-2-pyridyl)-1H-imidazol-4-yl]-3-quinolyl]pyridine-3-carboxylate] | < 0.0316 nM | 25.1 to 158 nM |
| Cc1cccc(-c2[nH]cnc2-c2ccc3ncc(-c4csc(C(=O)O[C@@H]5CCNC5)n4)cc3c2)n1 [Compound 1104, [(3R)-pyrrolidin-3-yl] 4-[6-[5-(6-methyl-2-pyridyl)-1H-imidazol-4-yl]-3-quinolyl]thiazole-2-carboxylate] | 0.0398 to 0.316 nM | 25.1 to 158 nM |
| Cc1cccc(-c2[nH]cnc2-c2ccc3ncc(-c4cc(C(=O)O[C@@H]5CCNC5)cs4)cc3c2)n1 [Compound 1105, [(3R)-pyrrolidin-3-yl] 5-[6-[5-(6-methyl-2-pyridyl)-1H-imidazol-4-yl]-3-quinolyl]thiophene-3-carboxylate] | < 0.0316 nM | 25.1 to 158 nM |
| Cc1cccc(-c2[nH]cnc2-c2ccc3ncc(-c4cncc(CN5C[C@@H](C)N[C@@H](C)C5)c4)cc3c2)n1 [Compound 1106, 3-[5-[[(3S,5R)-3,5-dimethylpiperazin-1-yl]methyl]-3-pyridyl]-6-[5-(6-methyl-2-pyridyl)-1H-imidazol-4-yl]quinoline] | 0.0398 to 0.316 nM | 25.1 to 158 nM |
| Cc1cccc(-c2[nH]cnc2-c2ccc3nccc(C(=O)O[C@H]4C[C@H](N)C4)c3c2)n1 [Compound 1107, (3-aminocyclobutyl) 6-[5-(6-methyl-2-pyridyl)-1H-imidazol-4-yl]quinoline-4-carboxylate] | 0.398 to 3.16 nM | 25.1 to 158 nM |
